Data reported in PubChem BioAssay (NCI).
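In this assay, cells in 96-well plates receive the compound at five concentrations for 48 hours. Endpoints are linearly interpolated between the surrounding concentrations. TGI marks complete inhibition of growth.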

How the values were obtained:
Experiment in all cases: NCI tumour cell line growth inhibition, 48 h
HOP-92 NSCLC = test system: HOP-92 NSCLC
M14 melanoma = test system: M14 melanoma
UO-31 renal = test system: UO-31 renal
ACHN renal = test system: ACHN renal
NCI/ADR-RES ovarian = test system: NCI/ADR-RES ovarian
MDA-MB-231 breast = test system: MDA-MB-231 breast
SK-MEL-5 melanoma = test system: SK-MEL-5 melanoma
HCT-116 colon = test system: HCT-116 colon
RPMI-8226 leukemia = test system: RPMI-8226 leukemia
SK-MEL-2 melanoma = test system: SK-MEL-2 melanoma
OVCAR-5 ovarian = test system: OVCAR-5 ovarian
TK-10 renal = test system: TK-10 renal
OVCAR-4 ovarian = test system: OVCAR-4 ovarian
SF-295 CNS = test system: SF-295 CNS
CAKI-1 renal = test system: CAKI-1 renal
SF-268 CNS = test system: SF-268 CNS
NCI-H460 lung = test system: NCI-H460 lung
NCI-H23 lung = test system: NCI-H23 lung
HL-60(TB) leukemia = test system: HL-60(TB) leukemia
BT-549 breast = test system: BT-549 breast

Structure (SMILES) | TGI (HOP-92 NSCLC) [µM] | TGI (M14 melanoma) [µM] | TGI (UO-31 renal) [µM] | TGI (ACHN renal) [µM] | TGI (NCI/ADR-RES ovarian) [µM] | TGI (MDA-MB-231 breast) [µM] | TGI (SK-MEL-5 melanoma) [µM] | TGI (HCT-116 colon) [µM] | TGI (RPMI-8226 leukemia) [µM] | TGI (SK-MEL-2 melanoma) [µM] | TGI (OVCAR-5 ovarian) [µM] | TGI (TK-10 renal) [µM] | TGI (OVCAR-4 ovarian) [µM] | TGI (SF-295 CNS) [µM] | TGI (CAKI-1 renal) [µM] | TGI (SF-268 CNS) [µM] | TGI (NCI-H460 lung) [µM] | TGI (NCI-H23 lung) [µM] | TGI (HL-60(TB) leukemia) [µM] | TGI (BT-549 breast) [µM]
COc1cccc([C@@H]2C/C(=N\NC(=O)C(=O)N[C@@H](C)c3ccccc3)c3cc4c(cc3N2)OCO4)c1 | > 100 | > 100 | > 100 | > 100 | > 100 | > 100 | 65.3 | > 100 | > 100 | > 100 | > 100 | > 100 | > 100 | > 100 | > 100 | > 100 | – | – | – | –
NC(CCCNc1ccc(O)cc1)C(=O)O (centres undefined) | 63.3 | > 66.9 | > 100 | > 57.4 | – | – | 63.8 | 32.1 | 54.8 | > 66.8 | > 100 | 97.7 | 31.7 | > 100 | > 100 | > 62.6 | > 100 | > 100 | 58.3 | –
O=C(CC(C(=O)c1cccs1)c1ccsc1)c1ccc(Cl)cc1 (centres undefined) | – | > 100 | > 100 | > 100 | > 100 | > 100 | > 100 | > 100 | > 100 | > 100 | > 100 | > 100 | > 100 | > 100 | > 100 | > 100 | > 100 | > 100 | > 100 | –
O=C1OCCC12CN(Cc1ccccc1)N=N2 (centres undefined) | > 100 | > 100 | > 100 | > 100 | > 100 | > 100 | > 100 | > 100 | > 100 | > 100 | > 100 | > 100 | > 100 | > 100 | > 100 | > 100 | > 100 | > 100 | – | –
CC(C)NC1CCCCC2c3cc(F)ccc3[C@]12O (some centres undefined) | – | > 100 | > 100 | > 100 | – | – | > 100 | > 100 | > 100 | > 100 | > 100 | > 100 | > 100 | > 100 | > 100 | > 100 | > 100 | > 100 | > 100 | –
CC(=O)Oc1c(C)cc2c(c1C)C(C)(C)CN2C(=O)C(C)(C)C | 74.4 | > 100 | > 100 | > 100 | > 100 | > 100 | > 100 | > 100 | > 100 | > 100 | > 100 | > 100 | > 100 | > 100 | – | > 100 | > 100 | > 100 | > 100 | –
OC1C2CCC3C2CC(C(O)(c2ccccc2)c2ccccc2)C13 (centres undefined) | > 100 | > 100 | > 100 | > 100 | > 100 | > 100 | > 100 | > 100 | – | 48.2 | > 100 | > 100 | > 100 | > 100 | > 100 | > 100 | > 100 | > 100 | – | –
Nc1cc(N2CCOCC2)nc(=O)n1-c1ccccc1 | > 100 | > 100 | > 100 | > 100 | > 100 | – | > 100 | > 100 | > 100 | > 100 | > 100 | – | – | > 100 | > 100 | – | > 100 | > 100 | > 100 | > 100
CCOC(=O)C1C(c2ccco2)C2(C#N)C(=N)OC1(C)C2(C#N)C#N (centres undefined) | > 100 | > 100 | > 100 | > 100 | > 100 | > 100 | > 100 | > 100 | > 100 | > 100 | > 100 | > 100 | – | > 100 | > 100 | > 100 | – | > 100 | – | –
CC(=O)OC1COC(n2c(O)c(N=Nc3ccc([N+](=O)[O-])cc3)c3cc(Br)c([N+](=O)[O-])cc32)C(OC(C)=O)C1OC(C)=O (centres undefined) | 78 | > 100 | – | 93.6 | – | – | > 100 | > 100 | > 100 | > 100 | > 100 | > 100 | > 100 | 67.1 | > 100 | > 100 | > 100 | > 100 | > 100 | –
CN(C)CCNC(=O)c1ccccc1Nc1c(Cl)cccc1Cl | – | 31 | 17.2 | 21 | – | – | 9.96 | 20.6 | 29.1 | – | 22.2 | 20.7 | 29.7 | – | – | 31.5 | – | 30.9 | 27 | –
O=C(N/C(=C\NC1=NCCS1)C(=O)N1CSC[C@@H]1C(=O)O)c1ccccc1 | > 100 | > 100 | > 100 | > 100 | > 100 | > 100 | > 100 | > 100 | > 100 | – | > 100 | > 100 | > 100 | > 100 | > 100 | > 100 | > 100 | > 100 | > 100 | –
CCOC(=O)CCC(NC(=O)C(CCC(=O)OCC)NC(=O)C(Cc1ccc([N+](=O)[O-])cc1)NC(C)=O)C(=O)NNC(=O)OC(C)(C)C (centres undefined) | > 100 | > 100 | > 100 | > 100 | – | > 100 | > 100 | > 100 | > 100 | > 100 | > 100 | > 100 | – | – | – | – | > 100 | > 100 | > 100 | > 100
O=C1CSC(c2c[nH]c3ccccc23)N1c1cccc([N+](=O)[O-])c1 (centres undefined) | > 100 | > 100 | > 100 | – | – | > 100 | > 100 | > 100 | > 100 | – | > 100 | > 100 | > 100 | > 100 | – | > 100 | > 100 | > 100 | > 100 | > 100
